# Publication PMC8720025, “PTHG2 Reduces Bone Loss in Ovariectomized Mice by Directing Bone Marrow Mesenchymal Stem Cell Fate” (Stem Cells International, 2021)
# Columns and labels:
# [1] = tested on: CREB phosphorylation in BMSCs; test: Western blotting of CREB phosphorylation (cAMP-PKA signaling); type: cell-based, C57/BL6 mice
# Method: The unstimulated group was the control group. After the stimulation, the cells were digested, and RIPA cell lysate (containing protein phosphatase inhibitors) was added and centrifuged. 30 μg protein was separated with SDS-PAGE. The proteins were then shifted to the nitrocellulose membrane using a trans-Blot Turbo Transfer System (Bio-Rad Laboratories, Hercules, CA, USA). Membrane was sealed with 5% bovine serum albumin (BSA) for 1 h. Membrane and specific primary antibody were incubated overnight at 4°C. Then, membrane was disposed with fluorescently labeled secondary Goat anti-Rabbit IgG Antibody (Dylight) for 1 hour at 25°C. The protein bands were imaged with a Bio-Rad visual imaging system (Bio-Rad Laboratories, Hercules, CA), and the relative protein expression was analyzed by Image J.
# [2] = tested on: OVX-induced bone loss in mice; test: OVX-induced bone loss model (micro-CT, histology, qPCR); type: in vivo, C57/BL6 mice
# [3] = CD spectroscopy, peptide helicity; type: physicochemical; conditions: 50 μM peptide in 50.0% TFE water solution, 25°C (legend: 20°C), from [θ]222
# Method: CD parameters was collected on a JASCO J-820 spectropolarimeter (JASCO Corp., Ltd). […] The sample ellipticity data were collected at 25°C and 195 nm. The helicity of the polypeptide is calculated by the following formula [36, 37]. (1) α=θ222/ θmax×100%.
# [θ]222 was the molar ellipticity at the absorption wavelength of 222 nm, [θ]max = ([…] + 250 T) (1 − K/N), K = 4, and N was the number of amino acids of the polypeptide (n = 34).
# BMSCs [4] = test: In vitro adipogenesis assay of BMSCs; type: cell-based, C57/BL6 mice
# [5] = tested on: heart, liver, spleen, lung, and kidney of mice; test: In vivo tissue toxicity test (H&E staining of organs); conditions: H&E staining after administration
# Method: (a) BMSC cell viability as assessed by CCK-8 assay following treatment without or with indicated concentrations of PTHG2 for 48 and 96 h. […] (c) The relative expression of Cebp-α and Perilipin following PTHG2 treatment was quantified by real-time PCR. (d) After pretreatment with H89, BMSC differentiated and stained with Alizarin red for 21 days. Supplementary Material 2: H&E staining of the heart, liver, spleen, lung, and kidney after administration of normal saline, PTH, and PTHG2. Click here for additional data file.
# BMSCs [6] = test: In vitro osteogenesis assay of BMSCs; type: cell-based, C57/BL6 mice
# BMSCs [7] = test: Cell cycle analysis by PI staining and flow cytometry; type: cell-based, C57/BL6 mice; conditions: PI staining, flow cytometry
# Method: Cells were cultured with 10 μM BrdU for one hour and fixed in 70% ethanol at -20 C. After washing with phosphate/citric buffer (40 ml Na2HPO4 with 4 ml 0.1 M citric acid), the cells were incubated with anti-BrdU antibody for one hour, then stained with propidium iodide (PI). For PI/RNase staining, cells were incubated with 0.5 ml of PI/RNAse staining buffer (BD Pharmingen) at 25°C for 15 minutes, then analyzed by flow cytometry.
# BMSCs [8] = test: CCK-8 cell viability assay; type: cell-based, C57/BL6 mice; conditions: concentrations below 100 μM, 48 h and 96 h, absorbance 450 nm
# Method: BMSCs were extracted from the femoral and tibial marrow cavity of 5-week-old C57/BL6 mice and cultured in mouse bone marrow mesenchymal stem cell medium for 2-3 days. The new culture medium was changed until the adherent cells grew 95% confluence and cell passage, or subsequent experiments were carried out. The cell growth environment was 37°C, 5% CO2, and […].
# Cell viability of BMSCs were tested using the CCK-8 (Dojindo Molecular Technology, Kumamoto, Japan) according to instruction. BMSCs were inoculated in a 96-well plate (5 × 10^3 cells per well) and hatched overnight. […] Then, cells were disposed with 10 μl of CCK-8 reagent for 2 hours. After incubation, the absorbance was measured at 450 nm in a Biotek Cytation 5 System (Biotek Instruments, Vermont, USA).
# [9] = 20/40 μg·kg−1 intraperitoneal daily for 8 weeks, compared with OVX group
SMILES,"phosphorylation level of CREB ([1]; BMSCs pretreated with H89-2HCl for 1 hour, then stimulated with PTH (1-34)/PTHG2 for 6 hours)","bone trabeculae number (Tb. N), micro-CT of femur [2, 9]","bone volume fraction (BV/TV), micro-CT of femur [2, 9]",helicity [3] [%],"number of adipocytes (oil red staining) (BMSCs [4]; adipogenic conditioned medium, 21 days, compared with the control)","adipogenic gene protein expression (Fabp4/PPARɣ/Adiponectin) (BMSCs [4]; adipogenic differentiation, compared with control group)","phosphorylation level of CREB ([1]; BMSCs starved 1 hour, stimulated with 10 μM peptide for 6 hours, without H89-2HCl)","tissue toxicity to heart, liver, spleen, lung, and kidney [5]","number of FABP4-positive cells (IHC, distal femur) [2]","OCN positivity, immunofluorescence of distal femur ([2]; 8 weeks of treatment)","number of lining cells on the trabecular bone surface (H&E) ([2]; 8 weeks of treatment, compared to the OVX group, n = 6 per group)","expression of OCN gene in bone mRNA (qPCR) ([2]; bone of the upper limb, compared with the OVX group)","inhibition of adipocyte generation (Fabp4 gene, qPCR) ([2]; compared with PTH (1-34))","number of adipocytes (vacuoles/cavitation) in H&E staining ([2]; metaphysis, compared with OVX group)","osteogenic differentiation activity of BMSCs (ALP staining) (BMSCs [6]; 10 nM, 6 h/day, osteogenic medium, 7 days)","expression of Runx2 gene (qPCR) (BMSCs [6]; 10 nM, osteogenic differentiation, compared with control group)","ALP and RUNX2 protein levels (Western blotting) (BMSCs [6]; osteogenic differentiation, 3, 7, and 10 days, compared to the control group)",effect on cell cycle (BMSCs [7]),toxicity to BMSCs (CCK-8) (BMSCs [8])
"O=S(=O)(NCCNC/C=C/c1ccc(Br)cc1)c1cccc2cnccc12 [H89-2HCL, H89-2HCl, reference compound]",not increased,–,–,–,–,–,–,–,–,–,–,–,–,–,–,–,–,–,–
"CC[C@H](C)[C@H](NC(=O)[C@H](CCC(=O)O)NC(=O)[C@H](CO)NC(=O)[C@@H](NC(=O)[C@@H](N)CO)C(C)C)C(=O)N[C@@H](CCC(N)=O)C(=O)N[C@@H](CC(C)C)C(=O)N[C@@H](CCSC)C(=O)N[C@@H](Cc1c[nH]cn1)C(=O)N[C@@H](CC(N)=O)C(=O)N[C@@H](CC(C)C)C(=O)NCC(=O)N[C@@H](CCCCN)C(=O)N[C@@H](Cc1c[nH]cn1)C(=O)N[C@@H](CC(C)C)C(=O)N[C@@H](CC(N)=O)C(=O)N[C@@H](CO)C(=O)N[C@@H](CCSC)C(=O)N[C@@H](CCC(=O)O)C(=O)N[C@@H](CCCNC(=N)N)C(=O)N[C@H](C(=O)N[C@@H](CCC(=O)O)C(=O)N[C@@H](Cc1c[nH]c2ccccc12)C(=O)N[C@@H](CC(C)C)C(=O)N[C@@H](CCCNC(=N)N)C(=O)N[C@@H](CCCCN)C(=O)N[C@@H](CCCCN)C(=O)N[C@@H](CC(C)C)C(=O)N[C@@H](CCC(N)=O)C(=O)N[C@@H](CC(=O)O)C(=O)N[C@H](C(=O)N[C@@H](Cc1c[nH]cn1)C(=O)N[C@@H](CC(N)=O)C(=O)N[C@@H](Cc1ccccc1)C(=O)O)C(C)C)C(C)C [PTH (1-34), Teriparatide, reference compound]",–,significantly increased,significantly increased,38.5,–,–,–,–,–,–,–,–,–,–,–,–,–,–,–
CC[C@H](C)[C@H](NC(=O)[C@H](CCC(=O)O)NC(=O)[C@H](CO)NC(=O)[C@@H](NC(=O)[C@@H](N)CO[C@@H]1O[C@H](CO)[C@@H](O)[C@H](O)[C@H]1NC(C)=O)C(C)C)C(=O)N[C@@H](CCC(N)=O)C(=O)N[C@@H](CC(C)C)C(=O)N[C@@H](CCSC)C(=O)N[C@@H](Cc1c[nH]cn1)C(=O)N[C@@H](CC(N)=O)C(=O)N[C@@H](CC(C)C)C(=O)NCC(=O)N[C@@H](CCCCN)C(=O)N[C@@H](Cc1c[nH]cn1)C(=O)N[C@@H](CC(C)C)C(=O)N[C@@H](CC(N)=O)C(=O)N[C@@H](CO)C(=O)N[C@@H](CCSC)C(=O)N[C@@H](CCC(=O)O)C(=O)N[C@@H](CCCNC(=N)N)C(=O)N[C@H](C(=O)N[C@@H](CCC(=O)O)C(=O)N[C@@H](Cc1c[nH]c2ccccc12)C(=O)N[C@@H](CC(C)C)C(=O)N[C@@H](CCCNC(=N)N)C(=O)N[C@@H](CCCCN)C(=O)N[C@@H](CCCCN)C(=O)N[C@@H](CC(C)C)C(=O)N[C@@H](CCC(N)=O)C(=O)N[C@@H](CC(=O)O)C(=O)N[C@H](C(=O)N[C@@H](Cc1c[nH]cn1)C(=O)N[C@@H](CC(N)=O)C(=O)N[C@@H](Cc1ccccc1)C(=O)O)C(C)C)C(C)C [PTHG2],–,–,–,39.1,did not increase,resemble to that of the control group,increased,no toxicity,reduced,significant increase,significantly increased,significantly increased,same effect as PTH (1-34),significantly reduced,significantly enhanced,higher than that in control group,significantly increased,no effect,no toxicity
